By inhibition is commonly meant the relative decrease from the control value, in per cent. What is called Cmax is the peak of the concentration-time curve. By IC50 is commonly meant the concentration at which inhibition is half-maximal.

Data set [1] has as its system firefly luciferase under control of cAMP response element (CRE). Put plainly: CRE-luciferase counter assay in HEK293s cells. Conditions: different concentrations. In kind it is cell-based. The method, then: (a) The drugs were tested at different concentrations in HEK293s cells stably transfected with firefly luciferase under control of cAMP response element (CRE) (pGL4.29[luc2P/CRE/Hygro], Promega). […] Raw, non-normalized luminescence values are presented, to facilitate the assessment of the extent of inhibition. Shown is a single representative experiment out of the multiple experiments performed on different days. (Mean ± SD)

A further data set has as its system Gli-1 mRNA. Put plainly: qRT-PCR of Gli-1 mRNA in MB-PDX xenograft tumors. It counts as in vivo, mouse. On the technique in general: Quantitative PCR measures a nucleic acid by following its amplification.
The test system of data set [2] is MB-PDX cells. Description: Neurosphere formation assay. It counts as cell-based, human. Conditions: Homo sapiens, 168 h, read-out: Inhibition of NS formation, wells.
Description: The final concentration of test compounds in the wells was 10 μM. Cells were incubated at 37 °C for at least seven days. After incubation percent of wells positive with neural stem cell-derived sphere colonies were calculated for each test condition and compared.
For data set [3], the system named is nuclear Gli-1 in MB-PDX cells. Description: Western blot quantitation of nuclear Gli-1. It counts as cell-based, human. Conditions: NS conditions, 24-hour treatment, 5 μM (Fig 6f, S4 Fig). How it is done:
(§1) Nuclear fractions were prepared from cell pellets according to the method of Schreiber et. al.[81] with minor modifications. […] After 24 hours, cells were lifted from the wells by pipetting, transferred to 1.5 mL Eppendorf tubes, centrifuged at 10,000 x g for 1 minutes at 4°C, and washed once in PBS. Following supernatant removal by vacuum, cells were lysed using a plasma membrane lysis buffer [10 mM HEPES; pH 7.5, 10 mM KCl, 0.1 mM EDTA, 1 mM dithiothreitol (DTT), 0.5% Nonidet P‐40 and 0.5 mM PMSF along with 1× protease inhibitor cocktail (Sigma)] and allowed to swell on ice for 15‐20 min with intermittent mixing. Next, tubes were vortexed to disrupt cell membranes and then centrifuged at 12,000 × g at 4°C for 10 min. […] The pelleted nuclei were washed with the plasma membrane lysis buffer and re-suspended in the nuclear extraction buffer [20 mM HEPES (pH 7.5), 400 mM NaCl, 1 mM EDTA, 1 mM DTT, 1 mM PMSF with 1× protease inhibitor cocktail] and incubated on ice for 30 min. The tubes were centrifuged at 12,000 ×g for 25 min at 4°C and the supernatant (now containing the soluble fraction of the cell nuclei) was collected. Total protein concentrations were determined using the Bio-Rad Protein Assay (Bio-Rad, Hercules, CA). Nuclear extracts containing the total of 40 μg protein were separated on a 10% Tris-SDS PAGE gel (Bio-Rad Mini-PROTEAN® TGX). Gels were transferred on nitrocellulose membranes using Bio-Rad TransBlot system, after which the membranes were blocked in the blocking buffer [5% nonfat dry milk in 1× Tris Buffer Saline + 0.1% Tween 20 (TBST)] for 2 hours at room temperature. Following blocking, the membranes were washed four times with TBST (5 minutes gentle rocking per wash) and incubated overnight with primary antibody Rabbit anti-Gli-1 (Cell signaling, #C68H3); 1:250 dilution in TBST-Milk at 4°C with gentle rocking. Membranes were washed three times with TBST for 5 min each.

Data set [4] has as its system nuclear Gli-1 in DAOY cells. Put plainly: Western blot quantitation of nuclear Gli-1. Conditions: NS conditions, 24-hour treatment, 5 μM (Fig 6f, S4 Fig). It counts as cell-based, human. The method, then:
as §1
(A western blot detects proteins with antibodies after separation by electrophoresis.)

The conditions of data set [5]: cited from earlier work.
Data set [6] has as its system Platelet-derived growth factor receptor alpha (PGFRA_HUMAN). Set-up: method as in earlier work. Particulars: S2/S3 Table; ref [1] Davis MI et al., Nat Biotechnol. 2011; cited from earlier work.
Data set [7] relates to Mast/stem cell growth factor receptor Kit (KIT_HUMAN). On the set-up: method as in earlier work. Particulars: S2/S3 Table; ref [1] Davis MI et al., Nat Biotechnol. 2011; cited from earlier work.
The target of another data set is T1, mSMO (Mus musculus, UniProt P56726).
T1 construct: host or cells: HEK293T
Put plainly: BODIPY-Cyclopamine competition binding assay, flow cytometry, HEK293T cells transiently transfected with mSMO. Particulars: BODIPY-Cyclopamine 5 nM. The method, then: Prior to transfection, cell culture media was replaced with DMEM + 10%FBS for mSMO transfection and with DMEM + 10%BCS for ShhN transfection. The transfected dish was incubated for approximately 24 hours at 37°C. For the production of ShhN conditioned medium, the culture medium from ShhN-transfected HEK293T cells was collected, aliquoted in single use 1.5 mL Eppendorf tubes and either used fresh or stored at -20°C.
HEK293T cells transiently transfected with mSMO were lifted with trypsin (0.25%) and replated at 6×10^4 cells in 80 μL DMEM + 10%FBS per well in a 96 well tissue-culture treated plate (Falcon, 353219). The plate was incubated at 37°C for 24 hours. Serial dilutions of test compounds (10x final concentrations) were prepared in culture media. 10 μL of diluted compounds or control media were added to the plate after which the plate was incubated at 37°C for 10 min. […] Following at least 1.5 hours incubation at 37°C in 5% CO2, cells were lifted by vigorous pipetting, transferred to conical bottom 96-well plates, and centrifuged at 400 × g for 5 min at 4°C. Supernatant was discarded, cells were re-suspended in 300 μL of PBS + 0.5% BSA (freshly prepared), and the plate was analyzed with Guava benchtop flow cytometer. The results were interpreted with FlowJo software (version v10.1). Dose response curves were constructed in Prism 6 (GraphPad Software, La Jolla, CA).
A general note: In flow cytometry, cells or beads pass a laser one at a time.

For data set [8], the target named is Mitogen-activated protein kinase MLT (MLTK_HUMAN). On the set-up: method as in earlier work. Particulars: S3 Table; ref [1] Davis MI et al., Nat Biotechnol. 2011; cited from earlier work.
Data set [9] has as its system Gli-target genes in MB-PDX cells. Description: qRT-PCR of Gli-target genes in MB-PDX cells in vitro. In kind it is cell-based, human. Conditions: 10 uM in-vitro, 24 hours. From the text: The results from three independent replicates were used for quantitative analysis and are represented in Fig 7c.
Y-axes show the relative expression levels of mRNA of target genes with respect to mRNA of GAPDH gene.

The next data set relates to DAOY cells. Description: Neurosphere formation assay. It counts as cell-based, human. Conditions: Homo sapiens, Daoy, 168 h, read-out: Inhibition of NS formation, wells.
For data set [10], the system named is Platelet-derived growth factor receptor beta (PGFRB_HUMAN). On the set-up: method as in earlier work. Particulars: S2/S3 Table; ref [1] Davis MI et al., Nat Biotechnol. 2011; cited from earlier work.
In data set [11] the test system is MB-PDX cells. Description: cells. Conditions: Homo sapiens, 72 h, read-out: Cell viability assay IC50.

T1 sequence (P56726 33-793): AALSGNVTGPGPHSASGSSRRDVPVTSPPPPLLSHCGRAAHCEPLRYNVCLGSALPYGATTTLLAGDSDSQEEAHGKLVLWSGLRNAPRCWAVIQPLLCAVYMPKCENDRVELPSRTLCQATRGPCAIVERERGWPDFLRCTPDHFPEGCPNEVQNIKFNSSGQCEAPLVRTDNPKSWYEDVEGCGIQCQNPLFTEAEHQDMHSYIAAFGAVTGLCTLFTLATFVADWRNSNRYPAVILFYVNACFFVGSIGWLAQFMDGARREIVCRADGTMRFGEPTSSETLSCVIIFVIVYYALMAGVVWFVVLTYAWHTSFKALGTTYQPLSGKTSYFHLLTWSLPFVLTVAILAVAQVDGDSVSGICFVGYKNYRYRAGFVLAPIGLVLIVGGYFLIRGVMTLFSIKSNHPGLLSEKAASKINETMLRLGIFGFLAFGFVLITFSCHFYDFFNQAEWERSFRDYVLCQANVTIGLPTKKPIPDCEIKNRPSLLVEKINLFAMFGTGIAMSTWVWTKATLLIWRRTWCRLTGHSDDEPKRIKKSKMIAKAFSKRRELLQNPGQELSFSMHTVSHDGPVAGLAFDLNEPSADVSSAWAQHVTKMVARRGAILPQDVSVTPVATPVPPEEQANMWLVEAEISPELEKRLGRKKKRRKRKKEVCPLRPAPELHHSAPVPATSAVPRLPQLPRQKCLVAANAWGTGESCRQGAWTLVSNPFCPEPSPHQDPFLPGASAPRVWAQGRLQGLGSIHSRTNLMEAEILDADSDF
Description for Gli-1 mRNA: NSG mice, 4–6 weeks old, were injected subcutaneously at shoulders and flanks with 1 × 10^6 viable MB-PDX cells in 1:1 HBSS and gelatinous protein mixture Matrigel. […] The tumor size was measured three times a week with a caliper, and tumor volumes were calculated according to the formula (length × width × width × 0.5). At day 42 post-grafting, all mice were euthanized by isoflurane inhalation and cervical dislocation. Tumors were harvested and stored for qRT-PCR analysis.
Both post-vivo MB-PDX cells and Math1-Cre; ptch1-flox/flox cells were analyzed for Gli-1 mRNA expression. For that, total RNA was extracted from dissociated single cells using QIAGEN RNease Mini Kit and cDNA was prepared using 1μg RNA with iScript cDNA Synthesis Kit (Bio-Rad). SYBR green-based QPCR was performed using murine primers listed as below (GLI1, Forward 5’- [sequence]-3’, Reverse 5’-[sequence]-3’, GAPDH Forward 5'-[sequence] -3', Reverse 5'-[sequence]-3'). mRNA levels were normalized to GAPDH (dCt = Ct gene of interest–Ct GAPDH) and reported as relative mRNA expression (ddCt = 2-^(dCt sample–dCt control)) in fold change.

Consider `Cc1cn(-c2cc(NC(=O)c3ccc(C)c(Nc4nccc(-c5cccnc5)n4)c3)cc(C(F)(F)F)c2)cn1` [Nilotinib], for which the “Effect on CRE-driven luciferase activity (independent of SMO)” value in [1] is “lack of dose-dependent effect”. For the same compound, the “Gli-1 mRNA expression in tumors versus vehicle” value in the data set with Gli-1 mRNA was “significant reduction in the Gli-1 mRNA expression levels”. The inhibition at 10 µM in the data set with MB-PDX cells [2] and in the data set with DAOY cells was > 90% in each case. Further, the results for the “Nuclear Gli-1, mean, % of untreated samples” value in data set [3] and in [4] were 41% and 46%, respectively. In [5] (clinically achievable concentrations), the “Trough concentration, Cmin” value is 1600 to 2600 nM. Moreover, the “Average Cmin” value in data set [5] (human plasma) is 2600 nM. Moreover, in [5] (human plasma), the peak concentration (Cmax) is 3300 nM. Also, the “Trough concentration (Cmin) in human plasma” value in data set [5] (standard dosing of 400 mg twice daily) is 1650 to 2380 nM. In addition, the “Kd/Ki Value” is on record as 180 nM in data set [6], 29 nM in [7], 11 nM in [8] and 73 nM in [10]. The “Displacement of BODIPY-Cyclopamine from SMO (in words)” value at mSMO was “displace BODIPY-Cyclopamine”. Moreover, the IC50 was 3110 nM on mSMO (HEK293T cells transfected with mSMO, n = 2, estimated, read-out: SMO binding IC50) and 5000 nM in the data set on MB-PDX cells [11]. Besides, in [9], the “mRNA expression of Gli-target genes” value was “decreased expression of GLI1, NMYC, HHIP and BCL2 genes”.
